A value given as a limit tells only on which side of the number the result lay.

For the first experiment, the target named is Vanin-1 (Homo sapiens (Human), UniProt O95497). Briefly: VNN1 inhibitor binding assay (Pantothenate-AMC fluorescence).
Sequence of Vanin-1 (O95497 22-513): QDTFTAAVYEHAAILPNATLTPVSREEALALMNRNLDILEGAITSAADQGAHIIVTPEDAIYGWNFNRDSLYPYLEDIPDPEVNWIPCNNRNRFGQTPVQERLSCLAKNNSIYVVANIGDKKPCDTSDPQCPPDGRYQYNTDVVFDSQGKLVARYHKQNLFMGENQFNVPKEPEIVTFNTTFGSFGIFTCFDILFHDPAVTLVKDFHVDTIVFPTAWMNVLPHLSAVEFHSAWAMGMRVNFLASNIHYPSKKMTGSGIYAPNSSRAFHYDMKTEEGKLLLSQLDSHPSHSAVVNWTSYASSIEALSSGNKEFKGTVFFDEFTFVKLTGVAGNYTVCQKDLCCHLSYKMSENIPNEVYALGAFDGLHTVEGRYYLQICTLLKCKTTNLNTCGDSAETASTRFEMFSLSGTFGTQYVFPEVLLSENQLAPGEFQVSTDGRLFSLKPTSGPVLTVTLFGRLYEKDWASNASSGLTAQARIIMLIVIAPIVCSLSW
Settings: not given
Format: biochemical. The procedure: Vanin-1 inhibitor binding assays for selected compounds as described herein, and reference compound RR6 (also “(R)-2,4-dihydroxy-3,3-dimethyl-N-(3-oxo-4-phenylbutyl)butanamide”) were examined and the IC50 values of were determined.
5 μL of 3× (45 μM) of Pantothenate-AMC to achieve final concentrations of 15 μM (0.25% DMSO final) were added in a 384 well assay plate followed by the addition of 5 μL of 3× the desired concentration of the tested compounds (Compound 1; Compound 2; and RR6) in 0.75% DMSO to designated wells (0.25% of DMSO final). The range of the compound concentrations tested was 10, 3.33, 1.11, 0.37, 0.12, 0.04, 0.01, 0.0046, 0.001, and 0.0005 μM. 5 μL of 0.75% DMSO were also added to positive and negative control wells.
5 μL of 1.4 ng/μL Vanain-1 was added to the assay plate to achieve a final amount of 7 ng/well, and covered with plate sealer. Another 5 μL of assay buffer was added to negative controls and the assay plate was then centrifuged briefly (1000 rpm for 30 s) in a plate centrifuge. The assay plate was incubated in the dark for 20 minutes at room temperature and immediately read on an Envision 2105, PerkinElmer multimode plate reader.
The fluorescence read was captured at excitation wavelength of 355 nm and emission wavelength of 460 nm. Percent inhibition of the test compounds was calculated using the following equation: […]
In the above equation, “A” is the relative fluorescence units of the test compound (test compound+Pantothenate-AMC+Vanin1); “B” is the relative fluorescence units of the average minimum (DMSO+Pantothenate-AMC+assay buffer); and “C” is the relative fluorescence units of the average maximum (DMSO+Pantothenate-AMC+Vanin1).
On to `CC(C)(CO)[C@@H](O)C(=O)NCCC(=O)Cc1ccccc1` [RR6, (R)-2,4-dihydroxy-3,3-dimethyl-N-(3-oxo-4-phenylbutyl)butanamide, reference compound], for which the IC50 (usually the concentration that inhibits the measured activity by half) was in the range of 1 to 10 µM.

Still in this experiment, the particulars now being: 15 μM Pantothenate-AMC, 7 ng/well Vanin-1, 20 minutes at room temperature; read-out: Vanin-1 IC50.
On to `O=C1NCCc2nc(NCc3cccnc3)ccc21` [Compound 2, 2-((Pyridin-3-ylmethyl)amino)-7,8-dihydro-1,6-naphthyridin-5(6H)-one], for which the IC50 was in the range of 1 to 10 µM. For `CN(C)CCN1Cc2nc(NCc3cccnc3)ccc2C1=O` [Compound 4, 6-(2-(Dimethylamino)ethyl)-2-((pyridin-3-ylmethyl)amino)-6,7-dihydro-5H-pyrrolo[3,4-b]pyridin-5-one], the IC50 lay in the range of 1 to 10 µM. On the same count and under the same terms, under `O=C1c2ccc(NCc3cccnc3)nc2CN1c1ccccc1` [Compound 11] stands greater than 10 µM; under `CN(C)C(C)(C)CN1Cc2nc(NCc3cccnc3)ccc2C1=O` [Compound 12, 6-(2-(Dimethylamino)-2-methylpropyl)-2-((pyridin-3-ylmethyl)amino)-6,7-dihydro-5H-pyrrolo[3,4-b]pyridin-5-one], 1 to 10 µM. The same measure, in the same setting: the figure for `CN(C)CCCN1Cc2nc(NCc3cccnc3)ccc2C1=O` [Compound 13, 6-(3-(Dimethylamino)propyl)-2-((pyridin-3-ylmethyl)amino)-6,7-dihydro-5H-pyrrolo[3,4-b]pyridin-5-one] is 1 to 10 µM. The same measure, in the same setting: the figure for `CC(=O)NCCCN1Cc2nc(NCc3cccnc3)ccc2C1=O` [Compound 15, N-(3-(5-Oxo-2-((pyridin-3-ylmethyl)amino)-5,7-dihydro-6H-pyrrolo[3,4-b]pyridin-6-yl)propyl)acetamide] is 1 to 10 µM; for `O=C1c2ccc(NCc3cccnc3)nc2CN1Cc1cnccn1` [Compound 17] it is 1 to 10 µM; for `CC(C)N1Cc2nc(NCc3cccnc3)ccc2C1=O` [Compound 19] it is 1 to 10 µM. In the case of `CC(=O)NCCN1Cc2nc(N[C@H](C)c3cccnc3)ccc2C1=O` [Compound 22, (R)—N-(2-(5-oxo-2-((1-(pyridin-3-yl)ethyl)amino)-5,7-dihydro-6H-pyrrolo[3,4-b]pyridin-6-yl)ethyl)acetamide], the IC50 was greater than 10 µM. The same measure, in the same setting: under `CC(=O)NCCN1Cc2nc(NCc3cncc(F)c3)ccc2C1=O` [Compound 26, N-(2-(2-(((5-fluoropyridin-3-yl)methyl)amino)-5-oxo-5,7-dihydro-6H-pyrrolo[3,4-b]pyridin-6-yl)ethyl)acetamide] stands 1 to 10 µM. As for `CC(=O)NCCN1Cc2nc(NCc3ccncc3)ccc2C1=O` [Compound 27, N-(2-(5-oxo-2-((pyridin-4-ylmethyl)amino)-5,7-dihydro-6H-pyrrolo[3,4-b]pyridin-6-yl)ethyl)acetamide], the IC50 lay in the range of 1 to 10 µM.

Regarding `COc1ccccc1CNc1ccc2c(n1)CN(CCNC(C)=O)C2=O` [Compound 28, N-(2-(2-((2-methoxybenzyl)amino)-5-oxo-5,7-dihydro-6H-pyrrolo[3,4-b]pyridin-6-yl)ethyl)acetamide], the IC50 was in the range of 1 to 10 µM. Regarding `COc1ccc(F)cc1CNc1ccc2c(n1)CN(CCNC(C)=O)C2=O` [Compound 29, N-(2-(2-((5-fluoro-2-methoxybenzyl)amino)-5-oxo-5,7-dihydro-6H-pyrrolo[3,4-b]pyridin-6-yl)ethyl)acetamide], the concentration for half-maximal inhibition (IC50) was 1 to 10 µM. Regarding `CC(=O)NC(C)(C)CN1Cc2nc(NCc3cccnc3)ccc2C1=O` [Compound 38, N-(2-methyl-1-(5-oxo-2-((pyridin-3-ylmethyl)amino)-5,7-dihydro-6H-pyrrolo[3,4-b]pyridin-6-yl)propan-2-yl)acetamide], the IC50 was 1 to 10 µM. The same measure, in the same setting: the figure for `CC(=O)NCCN1Cc2nc(NCc3ccc(C#N)nc3)ccc2C1=O` [Compound 40, N-(2-(2-(((6-cyanopyridin-3-yl)methyl)amino)-5-oxo-5,7-dihydro-6H-pyrrolo[3,4-b]pyridin-6-yl)ethyl)acetamide] is 1 to 10 µM. For `N#Cc1cncc(CNc2ccc3c(n2)CN(CCNC(=O)C2CC2)C3=O)c1` [Compound 43, N-(2-(2-(((5-cyanopyridin-3-yl)methyl)amino)-5-oxo-5,7-dihydro-6H-pyrrolo[3,4-b]pyridin-6-yl)ethyl)cyclopropanecarboxamide], the IC50 is greater than 10 µM. Still for that read-out and setting: the figure for `CC(=O)NCCN1Cc2nc(NCc3cnccn3)ccc2C1=O` [Compound 50] is 1 to 10 µM; for `CC(=O)NCCN1Cc2nc(NCc3cc(F)c(F)c(F)c3)ccc2C1=O` [Compound 71, N-(2-(5-oxo-2-((3,4,5-trifluorobenzyl)amino)-5,7-dihydro-6H-pyrrolo[3,4-b]pyridin-6-yl)ethyl)acetamide] it is 1 to 10 µM.

As to `CCC(=O)NCCN1Cc2nc(NCc3cc(F)c(F)c(F)c3)ccc2C1=O` [Compound 72, N-(2-(5-oxo-2-((3,4,5-trifluorobenzyl)amino)-5,7-dihydro-6H-pyrrolo[3,4-b]pyridin-6-yl)ethyl)propionamide], the IC50 was in the range of 1 to 10 µM. On the same count and under the same terms, the figure for `CCC(=O)NCCN1Cc2nc(NCc3cnccc3C(F)(F)F)ccc2C1=O` [Compound 74, N-(2-(5-oxo-2-(((4-(trifluoromethyl)pyridin-3-yl)methyl)amino)-5,7-dihydro-6H-pyrrolo[3,4-b]pyridin-6-yl)ethyl)propionamide] is 1 to 10 µM; for `CCC(=O)NCCN1Cc2nc(NCc3ccc(F)cc3C)ccc2C1=O` [Compound 78, N-(2-(2-((4-fluoro-2-methylbenzyl)amino)-5-oxo-5,7-dihydro-6H-pyrrolo[3,4-b]pyridin-6-yl)ethyl)propionamide] it is 1 to 10 µM.

The same experiment, now with this note: comparison with reference compound RR6.
Consider `O=C1NCc2nc(NCc3cccnc3)ccc21` [Compound 1, 2-((Pyridin-3-ylmethyl)amino)-6,7-dihydro-5H-pyrrolo[3,4-b]pyridin-5-one], for which the “potency (half-maximal inhibitory concentration) compared to RR6” value is reported as “up to two orders of magnitude greater than RR6”. The same measure, in the same setting: under `O=C1NCCc2nc(NCc3cccnc3)ccc21` [Compound 2, 2-((Pyridin-3-ylmethyl)amino)-7,8-dihydro-1,6-naphthyridin-5(6H)-one] stands “comparable to RR6”.

The record behind these values is patent US20250066353A1, “VANIN-1 INHIBITORS” (ATHOS THERAPEUTICS, INC., priority 2023, published 2025).
